The target of assay [1] is T1, His-DNMT1 (182 kDa, human) (Homo sapiens, UniProt P26358).
T1 construct: His; made in house
As to the kind of experiment: hDNMT1 assay ([methyl-3H] SAM Flashplate). The format is biochemical. Conditions: read-out: hDNMT1 percentage of inhibition. The method, then: His-DNMT1 (182 kDa, human) was cloned, expressed and purified as described in the literature (Halby et al. ChemBioChem 2012, 13, 157-165). The reaction was performed in a […] total reaction volume in low volume NBS™ 384-well microplates (Corning), containing the tested compound (up to 1% DMSO), 1 μM of a SAM/[methyl-^3H] SAM (3 TBq/mmol, PerkinElmer) mix in a ratio of 3-to-1 (isotopic dilution 1*:3), 0.3 μM of biotinylated hemimethylated DNA duplex (5′-GATmCGCmCGATGmCGmCGAATmCGmCGATmCGATGmCGAT-3′ and BIOT-5′-[…]-3′), and 90 nM of DNMT1 in methylation buffer (20 mM HEPES pH 7.2, 1 mM EDTA, 50 mM KCl, 25 μg/mL BSA). The reaction was incubated at 37° C. for 2 hours. 8 μL, are then transferred into a streptavidin 96-well scintillant coated Flashplate™ (PerkinElmer) containing 190 μL of 20 μM SAH in 50 mM Tris-HCl pH 7.4. The Flashplate™ was agitated at room temperature for 1 hour and read in 200 μL of 50 mM Tris-HCl pH 7.4 on TopCount NXT (PerkinElmer). The percentage of inhibition is reported. The formula used to calculate the percentage of inhibition is [(X−Y)/X]×100, where X is the signal determined in the absence of the inhibitor and Y is the signal obtained in the presence of the inhibitor.

The test system of assay [2] is CMV promoter in KG-1 Luc cells. As to the kind of experiment: CMV promoter analysis by NOMe-Seq: DNA methylation and nucleosome occupancy. The format is cell-based, human. Conditions: at 5 μM, 24 h. As to the method:
Using the Nucleosome Occupancy and Methylome Sequencing (NOMe-Seq) technique, the methylation status of the CMV promoter and the position of the nucleosomes on such promoter were both analysed.
NOMe-seq is a modified version of the methylation-dependent single promoter assay described by Miranda et al. (Curr Protoc Mol Biol. 2010 21.17.1-16) and the methylase-based DNA assay was performed as previously described with minor modifications (Hochedlinger K, Plath K 2009; Sharma et al. 2010, You et al. 2011, Kelly et al. 2012). After nuclei extraction, GpC methyltransferase (M.CviPI; New England Biolabs) reactions were done in M.CviPI reaction buffer. GpC methyltransferase treatment was followed by DNA extraction, sodium bisulfite conversion, PCR amplification of the region of interest, cloning, and sequencing of individual clones to reveal the structure of single replicas as functional units. After treatment with the compounds or with DMSO, KG-1 Luc cells were centrifuged for 5 min at 500×g. Cell pellets were washed in ice-cold PBS, resuspended in 1 mL of ice-cold nuclei buffer [10 mM Tris (pH 7.4), 10 mM NaCl, 3 mM MgCl2, 0.1 mM EDTA, and 0.5% Nonidet P-40, plus protease inhibitors] per 2×10^6 cells, and incubated on ice for 10 min. […]

T1 sequence (P26358 whole entry): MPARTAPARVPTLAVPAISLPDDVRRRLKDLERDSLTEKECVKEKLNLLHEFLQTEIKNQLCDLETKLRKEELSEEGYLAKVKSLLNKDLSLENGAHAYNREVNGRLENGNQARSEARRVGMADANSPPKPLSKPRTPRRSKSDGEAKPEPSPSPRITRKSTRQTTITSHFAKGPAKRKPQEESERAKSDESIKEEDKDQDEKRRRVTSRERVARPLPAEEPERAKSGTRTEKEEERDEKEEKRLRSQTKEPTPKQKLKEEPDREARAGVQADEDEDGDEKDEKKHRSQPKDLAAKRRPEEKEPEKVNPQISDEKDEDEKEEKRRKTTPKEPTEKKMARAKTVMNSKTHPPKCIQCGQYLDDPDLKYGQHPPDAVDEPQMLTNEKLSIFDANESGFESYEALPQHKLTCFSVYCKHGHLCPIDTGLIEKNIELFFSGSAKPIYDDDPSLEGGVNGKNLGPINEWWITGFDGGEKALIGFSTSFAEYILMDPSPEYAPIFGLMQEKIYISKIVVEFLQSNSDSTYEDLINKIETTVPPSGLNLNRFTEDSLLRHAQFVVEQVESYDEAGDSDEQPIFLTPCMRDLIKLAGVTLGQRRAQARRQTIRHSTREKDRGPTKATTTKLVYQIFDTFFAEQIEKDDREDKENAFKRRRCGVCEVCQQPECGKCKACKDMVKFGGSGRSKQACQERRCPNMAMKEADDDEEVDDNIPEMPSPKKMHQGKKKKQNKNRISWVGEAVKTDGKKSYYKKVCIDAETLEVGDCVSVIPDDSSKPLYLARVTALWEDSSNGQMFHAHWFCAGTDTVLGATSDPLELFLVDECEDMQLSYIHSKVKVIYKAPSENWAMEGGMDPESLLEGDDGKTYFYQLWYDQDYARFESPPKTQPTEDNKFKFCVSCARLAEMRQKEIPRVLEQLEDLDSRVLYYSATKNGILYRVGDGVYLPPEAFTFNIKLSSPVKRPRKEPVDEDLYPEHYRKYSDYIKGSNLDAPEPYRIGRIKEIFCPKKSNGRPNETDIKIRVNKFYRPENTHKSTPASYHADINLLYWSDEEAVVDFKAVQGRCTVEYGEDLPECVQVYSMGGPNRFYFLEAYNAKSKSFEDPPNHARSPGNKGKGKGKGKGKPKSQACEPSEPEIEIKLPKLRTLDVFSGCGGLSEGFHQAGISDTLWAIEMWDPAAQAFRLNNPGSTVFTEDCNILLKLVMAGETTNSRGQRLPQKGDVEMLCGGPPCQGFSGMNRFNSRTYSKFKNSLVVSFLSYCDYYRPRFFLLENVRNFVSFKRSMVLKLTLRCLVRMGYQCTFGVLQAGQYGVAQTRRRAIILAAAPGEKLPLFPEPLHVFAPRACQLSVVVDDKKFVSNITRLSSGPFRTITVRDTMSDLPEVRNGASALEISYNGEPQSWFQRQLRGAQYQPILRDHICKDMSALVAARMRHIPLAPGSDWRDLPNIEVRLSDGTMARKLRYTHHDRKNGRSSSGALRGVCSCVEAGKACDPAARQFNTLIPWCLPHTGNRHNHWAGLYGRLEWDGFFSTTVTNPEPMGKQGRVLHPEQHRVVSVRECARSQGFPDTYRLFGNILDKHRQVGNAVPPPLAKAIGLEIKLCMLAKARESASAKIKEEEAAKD

By inhibition is commonly meant the drop in the measured response relative to a control, in per cent. Turning to `COc1ccc2cc1Oc1ccc(cc1)C[C@@H]1NCCc3cc(OC)c4c(c31)Oc1cc3c(cc1O4)CCN(C)[C@H]3C2` [Compound 1, Trilobine], the inhibition at 32 µM in assay [1] turned out to be 50%. In assay [2], the “Chromatin accessibility, KG1 CMV-Luc model” value was determined as 1.9 ± 0.1 and the “DNA demethylation, KG1 CMV-Luc model” value is on record as −37 ± 8%.

These data come from US10517863B2, “Trilobine and its natural analogs for use as a drug” (PIERRE FABRE MEDICAMENT, priority 2015, dated 2019).
